Data reported in paper PMC7557804, “The Anti-Microbial Peptide (Lin-SB056-1)2-K Reduces Pro-Inflammatory Cytokine Release through Interaction with Pseudomonas aeruginosa Lipopolysaccharide” (Antibiotics, 2020).

Legend:
A549 cells [1] = test: Cytokine production by A549 cells stimulated with whole P. aeruginosa PAO1; type: cell-based, Human; conditions: 4 h, 37 °C, 5% CO2
Method: The reference strain P. aeruginosa PAO1 (ATCC 15692) was used in this study. For the preparation of stock cultures, bacteria were grown in Tryptone Soy Broth (TSB; Thermo Fisher Scientific, Waltham, MA, USA) until mid-exponential phase, then aliquoted and stored at −80 °C. For the preparation of the inoculum, a volume of 50 μL of the frozen culture was inoculated in 5 mL of TSB, and subsequently incubated for 18 h at 37 °C. […]
In some experiments, the ability of (lin-SB056-1)2-K to inhibit cytokine production by A549 cells stimulated with whole P. aeruginosa (PAO1 strain) was assessed. […]
Different pro-inflammatory cytokines (i.e., IL-1β, IL-6, IL-8 and TNF-α) were quantified in cell culture supernatants through a bead-based multiplex immunoassay (LEGENDplex multi-analyte flow assay kit; BioLegend, San Diego, CA, USA) following manufacturer’s instructions. […] Following consecutive washing steps, the beads were resuspended in the LEGENDplex wash buffer and the samples were analyzed by flow cytometry (BD Accuri C6 flow cytometer; BD Biosciences, Mountain View, CA, United States). Data were acquired with the BD Accuri C6 software (BD Biosciences) (300 events per analyte) and analyzed with the LEGENDplex software (BioLegend). […]

[2] = BODIPY TR cadaverine (BC) fluorescent displacement assay, LPS binding; set-up: species or system P. aeruginosa; conditions: 50 mM Tris-HCl, pH 7.4, 25 °C
Method: Measurement of the ability of lin-SB056-1 and its dendrimeric derivative to bind P. aeruginosa serotype 10 LPS (Sigma-Aldrich) in vitro was performed by a fluorescent displacement assay using the BODIPY TR cadaverine (BC) probe (5-(((4-(4,4-difluoro-5-(2-thienyl)-4-bora-3a,4a-diaza-s-indacene-3-yl)phenoxy)acetyl)amino)pentylamine, hydrochloride); Thermo Fisher Scientific), as described elsewhere. BC binds to LPS by recognizing the lipid A portion and the probe fluorescence is quenched. When a peptide able to interact with LPS is added, BC is displaced from the complex and its fluorescence increases. LPS binding assays were carried out in 50 mM Tris-HCl buffer, pH 7.4. Aliquots of the peptides at a final concentration of 0.1 μM were successively added to a cuvette containing the LPS/BC complex (10 µg/mL P. aeruginosa LPS and 10 µM BC). Fluorescence measurements were performed with a Perkin-Elmer LS 55B spectrofluorometer (Perkin-Elmer, Waltham, MA, USA) using a thermostated (25 °C) cuvette apparatus (excitation: 580 nm; emission: 620 nm).

[3] = tested on: reference strain and CF lung isolates of P. aeruginosa; conditions: cell culture medium; cited from earlier work
Source text: In our previous work, we explored different strategies to enhance the anti-bacterial and anti-biofilm activity of the semi-synthetic peptide lin-SB056-1 [12] in physiologically relevant, host-mimicking conditions that are known to interfere with the stability and efficacy of AMPs.

A549 cells [4] = test: LPS-induced cytokine production by A549 cells (bead-based multiplex immunoassay); type: cell-based, Human; conditions: 4 h, 37 °C
Method: Human non-small-cell lung adenocarcinoma A549 cells (ATCC CCL-185; LGC Standards, Milan, Italy) and human monocytic THP-1 cells (ATCC TIB-202; LGC Standards) were cultured in tissue culture flasks in Dulbecco’s modified essential medium (DMEM) (Euroclone, Milan, Italy) and RPMI 1640 medium (Euroclone), respectively. Both media were supplemented with 2 mM L-glutamine (Euroclone) and 10% heat-inactivated fetal bovine serum (FBS; Euroclone). Confluent monolayers were detached from the culture flask with 0.25% trypsin/1 mM EDTA solution (Euroclone), suspended in complete culture medium and seeded into flat-bottom 96-well plates at a final density of 1 × 10^4 cells/well (A549) and 2 × 10^4 cells/well (THP-1). A549 cells were cultured for 24 h at 37 °C, 5% CO2 in order to allow adhesion and formation of semi-confluent monolayers. THP-1 cells were cultured for 3 days (37 °C, 5% CO2) in the presence of 100 nM TPA (Sigma-Aldrich, St. Louis, MO, USA) to induce their differentiation into macrophage-like cells.
The anti-inflammatory potential of lin-SB056-1 and (lin-SB056-1)2-K was assessed by evaluating their ability to reduce LPS-induced production of pro-inflammatory cytokines by A549 cells and THP-1 macrophages. In order to ensure cytokine production, cell monolayers were stimulated with LPS from P. aeruginosa serotype 10 (purified by phenol extraction; Sigma-Aldrich, Milano, Italy) at a final concentration of 10 ng/mL (THP-1) and 800 ng/mL (A549). LPS concentrations used in the experiments were chosen based on preliminary assays aimed at identifying the minimum dose of the molecule able to stimulate cytokine production after 4 h of exposure. In order to assess the inhibitory activity of peptides on cytokine production, cell monolayers were incubated in complete culture medium in the presence of LPS and different concentrations of lin-SB056-1 and (lin-SB056-1)2-K (4.8 to 19.25 μM) for 4 h (37 °C, 5% CO2). Cells incubated in the presence of LPS alone were used as positive (cytokine production) control. Following incubation, cell culture supernatants were collected, filter sterilized (0.22 µm) and employed for the quantification of cytokines and the assessment of cell viability.
Different pro-inflammatory cytokines (i.e., IL-1β, IL-6, IL-8 and TNF-α) were quantified in cell culture supernatants through a bead-based multiplex immunoassay (LEGENDplex multi-analyte flow assay kit; BioLegend, San Diego, CA, USA) following manufacturer’s instructions. Briefly, 25 μL of cytokine standard or cell supernatant were incubated with 25 μL of anti-cytokine conjugated beads into V-bottom 96-well plates for 2 h. Following incubation, the plates were washed and subsequently incubated with the detection antibody (25 μL/well) for 1 h. A volume of 25 μL of streptavidin-phycoerythrin was added to each well, and the plates were incubated for another 30 min in the dark. Following consecutive washing steps, the beads were resuspended in the LEGENDplex wash buffer and the samples were analyzed by flow cytometry (BD Accuri C6 flow cytometer; BD Biosciences, Mountain View, CA, United States). Data were acquired with the BD Accuri C6 software (BD Biosciences) (300 events per analyte) and analyzed with the LEGENDplex software (BioLegend). Minimum detectable concentration (MDC+2STDEV) for the tested cytokines were as follows: IL-1β, 0.65 + 0.47 pg/mL; IL-6, 0.97 + 1.46 pg/mL; IL-8, 1.90 + 0.65 pg/mL; TNF-α, 0.88 + 0.27 pg/mL.

[5] = 9.6 μM peptide, P. aeruginosa serotype 10 LPS 800 ng/mL, 5% CO2, complete culture medium, mean of at least three independent experiments, vs peptide-untreated control

[KWKIRVRLSA]2-K [(lin-SB056-1)2-K, dendrimeric derivative of lin-SB056-1]
reduction in IL-6 levels (A549 cells [1]; 9.6 μM peptide, PAO1 fixed with 4% paraformaldehyde, 5 × 10^6 CFU/well, statistically significant, mean of at least three independent experiments): up to 70% | effect on IL-8 release (A549 cells [1]; 9.6 and 19.25 μM peptide, fixed PAO1 5 × 10^6 CFU/well): no evident effect | LPS-binding affinity compared to monomeric form ([2]; BC displacement): significantly greater affinity | ED50 (Effective Displacement; peptide concentration displacing half of the BC) ([2]; P. aeruginosa serotype 10 LPS 10 µg/mL, BC 10 µM, excitation 580 nm, emission 620 nm, mean of three independent experiments, SD not exceeding 5%): approximately 0.4 µM | MIC (Minimal Inhibitory Concentration) [3]: 2.4 to 9.6 µM | fold lower MIC compared to lin-SB056-1 [3]: 4 to 16 fold | reduction of IL-6 levels (A549 cells [4]; [5]): ≤ 80% | reduction of IL-8 levels (A549 cells [4]; [5]): ≤ 80% | effect on IL-6 release (A549 cells [4]; LPS 800 ng/mL, peptide 4.8 to 19.25 μM): significant reduction | effect on IL-8 release (A549 cells [4]; LPS 800 ng/mL, peptide 4.8 to 19.25 μM, lin-SB056-1 decrease at 19.25 μM (highest tested)): significant reduction
